In patent US4831170A, “Pharmaceutically active phospino-hydrocarbon-group VIII-metal complexes, antitumor compositions containing these complexes, and a process for preparing said compounds or antitumor compositions” (priority 1985, dated 1989):
Where “and” joins values, the source holds several entries; their conditions need not be identical. Identical values can stand only once.

What was measured:
[1] = tested on: P388 murine leukemia; test: Antitumor activity against P388 murine leukemia in CDF1 mice; format: in vivo; details: 1 x on day 1; for P 388 Dose producing the maximum % T/C: administered ip; for P 388 Maximum % T/C: median survival time treated/saline control x 100, ip, active if ≥125
Procedure: (§1) All of the metal complexes were tested for antitumor activity against P388 murine leukemia. Selected compounds were also tested for antitumor activity against L1210 murine leukemia and a subline of L1210 murine leukemia resistant to cisplatin (L1210:DDP). CDF1 mice weighing 20 grams were inoculated intraperitoneally with 10^6 ascites cells of P388 leukemia, L1210 leukemia or L1210:DDP leukemia, depending on the test system being used. Drug administration was initiated the day following tumor implantation in all test systems. The complexes were administered at various dose levels by intraperitoneal injection. Groups of four to six mice were used for each dose level and they were treated with the complex on day one only. A group of ten saline treated control mice was included in each experiment. Cisplatin treated groups were included as a positive control in each experiment. The mice were weighed before treatment and again on day five or six and the average weight change used as a measure of toxicity. The animals were observed daily for mortality and the experiments terminated after 30 days. Antitumor activity was determined based on % T/C, which is the ratio of the median survival time of the drug treated group to the median survival time of the saline treated control group times 100. The saline treated mice usually have a median survival time of 9 days with P388 leukemia and 7 days with L1210 and L1210/DDP leukemia. A complex is considered active if it produces a % T/C of ≥125.
(§2) Tables II and IIa contain summaries of the evaluations of the compounds for antitumor activity against the murine leukemias. Listed for each compound is the maximum % T/C achieved and the dose producing that effect.
(§3) For the in vitro cytotoxicity studies the drugs were dissolved or suspended, depending on their solubility, in 0.9% NaCl solution. Occasionally, 5% dextrose in water or 10% DMSO in 0.9% NaCl was used. The compounds were prepared for in vivo treatment by dissolving or suspending, with the addition of minimal amounts of Tween 80, in water.

[2] = tested on: B16 Melanoma; test: Antitumor activity against B16 Melanoma in BDF1 mice; format: in vivo; details: for B 16 Dose producing the maximum % T/C: administered ip, days 1-9; for B 16 Maximum % T/C: median survival time vs saline control, ip, daily days 1-9, active if ≥125, figures separated by slashes are from separate experiments
Procedure: Several of the metal complexes were additionally evaluated for antitumor activity against B16 Melanoma. BDF1 mice, 10 per group, were inoculated intraperitoneally with 0.5 ml of a 10 percent (w:v) brei of B16 Melanoma. Intraperitoneal treatment with the metal complexes was initiated one day after implant and continued daily for a total of nine days. From 4 to 5 doses were tested for each compound under study. A saline treated control group and cisplatin treated groups were included in each experiment. The mice were observed daily for survivors and the experiments terminated after 60 days. […] The median survival time of the drug treated mice relative to that of the controls (% T/C) was used as a measure of antitumor activity.
Occasionally, 5% dextrose in water or 10% DMSO in 0.9% NaCl was used. The compounds were prepared for in vivo treatment by dissolving or suspending, with the addition of minimal amounts of Tween 80, in water.

[3] = tested on: L1210 murine leukemia; test: Antitumor activity against L1210 murine leukemia in CDF1 mice; format: in vivo; details: day 1; for L1210 Dose producing the maximum % T/C: administered ip; for L1210 Max. % T/C: median survival time treated/saline control x 100, ip, active if ≥125
Procedure: as §1, §2, §3

[4] = tested on: L1210 murine leukemia resistant to cisplatin (L1210:DDP); test: Antitumor activity against cisplatin-resistant L1210 murine leukemia (L1210/DDP) in CDF1 mice; format: in vivo; details: cisplatin-resistant subline, day 1; for L1210/DDP Dose producing the maximum % T/C: administered ip; for L1210/DDP Max. % T/C: done concomitantly with L1210 test, ip, active if ≥125
Procedure: as §1, §2, §3

[5] = tested on: B16-F10 murine melanoma cells; test: In vitro cytotoxicity, B16-F10 murine melanoma cells (72 h, crystal violet); format: cell-based
Procedure: (§4) Logarithmically growing cells were harvested by mild trypsinization and 4000 cells were added to each well of a 96-well microtiter plate (Costar). […] The cells were then treated with a metal complex or cisplatin and incubated for 72 hours. The plates were inverted and shaken to remove media, drug and detached cells. […] The fixative was removed, the plates air dried, stained with 0.0075% crystal violet for 15 minutes, washed twice and air dried. The stain was solubilized with 0.2 ml of 0.1 M AcOH/EtOH (1:1) and optical densities determined using a Dynatech MR600 microtiter plate reader. […] The compounds were prepared for in vivo treatment by dissolving or suspending, with the addition of minimal amounts of Tween 80, in water.

[6] = tested on: HCT-116 human colon carcinoma cells; test: In vitro cytotoxicity, HCT-116 human colon carcinoma cells (72 h, crystal violet); format: cell-based; details: HCT-116 cells
Procedure: as §4

Compound	P 388 Dose producing the maximum % T/C [1]	P 388 Maximum % T/C [1]	B 16 Dose producing the maximum % T/C [2]	B 16 Maximum % T/C [2]	L1210 Dose producing the maximum % T/C [3]	L1210 Max. % T/C [3]	L1210/DDP Dose producing the maximum % T/C [4]	L1210/DDP Max. % T/C [4]	IC 50 (concentration which inhibits cell growth by 50%), B 16 [5]	IC 50 (concentration which inhibits cell growth by 50%), HCT 116 [6]
O=S(=O)([O-])C(F)(F)F.[Rh+].c1ccc(P(CCP(c2ccccc2)c2ccccc2)c2ccccc2)cc1.c1ccc(P(CCP(c2ccccc2)c2ccccc2)c2ccccc2)cc1 [TNO 302, Bis[1,2-bis(diphenylphosphino)ethane]rhodium(I) triflate]	4 mg/kg	153 % T/C	3.2 mg/kg/inj.	150 % T/C and 126 % T/C	–	–	–	–	–	–
[O-][Cl+3]([O-])([O-])[O-].[Rh+].c1ccc(P(CCP(c2ccccc2)c2ccccc2)c2ccccc2)cc1.c1ccc(P(CCP(c2ccccc2)c2ccccc2)c2ccccc2)cc1 [TNO 316, Bis[1,2-bis(diphenylphosphino)ethane]rhodium(I) perchlorate]	12.5 mg/kg	150 % T/C	16 mg/kg/inj.	131 % T/C	160 mg/kg	133 % T/C	120 mg/kg	157 % T/C	–	–
[I-].[I-].[Pd+2].c1ccc(P(CCP(c2ccccc2)c2ccccc2)c2ccccc2)cc1.c1ccc(P(CCP(c2ccccc2)c2ccccc2)c2ccccc2)cc1 [TNO 342, Bis[1,2-(diphenylphosphino)ethane]diiodo palladium(II)]	5 mg/kg	139 % T/C	–	–	–	–	–	–	–	–
[O-][Cl+3]([O-])([O-])[O-].[O-][Cl+3]([O-])([O-])[O-].[Pd+2].c1ccc(P(CCP(c2ccccc2)c2ccccc2)c2ccccc2)cc1.c1ccc(P(CCP(c2ccccc2)c2ccccc2)c2ccccc2)cc1 [TNO 343, Bis[1,2-bis(diphenylphosphino)ethane]palladium(II) diperchlorate]	200 mg/kg	178 % T/C	60 mg/kg/inj.	204 % T/C	–	–	–	–	–	–
[Br-].[Br-].[Co+2].c1ccc(P(CCP(c2ccccc2)c2ccccc2)c2ccccc2)cc1.c1ccc(P(CCP(c2ccccc2)c2ccccc2)c2ccccc2)cc1 [TNO 346, Bis[1,2-bis(diphenylphosphino)ethane]bromo cobalt(II) bromide]	100 mg/kg	167 % T/C	–	–	200 mg/kg	100 % T/C	–	–	–	–
[Cl-].[Cl-].[Cl-].[Rh+3].c1ccc(P(CCP(c2ccccc2)c2ccccc2)c2ccccc2)cc1.c1ccc(P(CCP(c2ccccc2)c2ccccc2)c2ccccc2)cc1 [TNO 363, Bis[1,2-bis(diphenylphosphino)ethane]dichloro rhodium(III) chloride]	50 mg/kg	133 % T/C	–	–	–	–	–	–	–	–
[Br-].[Br][Pd+].c1ccc(P(CCP(c2ccccc2)c2ccccc2)c2ccccc2)cc1.c1ccc(P(CCP(c2ccccc2)c2ccccc2)c2ccccc2)cc1 [TNO 376, Bis[1,2-bis(diphenylphosphino)ethane]bromo palladium(II) bromide]	–	–	–	–	–	–	–	–	0.7 µg/mL	6.3 µg/mL
[Cl-].[Cl-].[O-][Cl+3]([O-])([O-])[O-].[Rh+3].c1ccc(P(CC[As](c2ccccc2)c2ccccc2)c2ccccc2)cc1.c1ccc(P(CC[As](c2ccccc2)c2ccccc2)c2ccccc2)cc1 [TNO 395, Bis[1-diphenylphosphino-2-diphenylarsinoethane]dichloro rhodium(III) perchlorate]	200 mg/kg	136 % T/C	–	–	–	–	–	–	–	–
[Ir+3].[O-][Cl+3]([O-])([O-])[O-].[O-][O-].c1ccc(P(CCP(c2ccccc2)c2ccccc2)c2ccccc2)cc1.c1ccc(P(CCP(c2ccccc2)c2ccccc2)c2ccccc2)cc1 [TNO 413, Bis[1,2-bis(diphenylphosphino)ethane]peroxo iridium(III) perchlorate]	200 mg/kg	170 % T/C	–	–	–	–	–	–	–	–
Bis[1,2-bis(diphenylphosphino)ethane] cobalt(II) diperchlorate [TNO 358]	100 mg/kg	144 % T/C	20 mg/kg/inj.	150 % T/C	120 mg/kg	142 % T/C	100 mg/kg	143 % T/C	–	–
Bis[1,2-bis(diphenylphosphino)ethane] dichloro rhodium(III) perchlorate [TNO 355]	100 mg/kg	167 % T/C	30 mg/kg/inj.	171 % T/C	80 mg/kg	114 % T/C	49 mg/kg	119 % T/C	–	–
Bis[1,2-bis(diphenylphosphino)ethane] iridium(I) perchlorate [TNO 344]	200 mg/kg	167 % T/C	20 mg/kg/inj.	150 % T/C	–	–	–	–	–	–
Bis[1,2-bis(diphenylphosphino)ethane] nickel(II) perchlorate [TNO 404]	25 mg/kg	240 % T/C	–	–	–	–	–	–	–	–
Bis[1,2-bis(diphenylphosphino)ethane]palladium(II) dichlorate [TNO 306]	60 mg/kg	144 % T/C	12 mg/kg/inj.	202 % T/C and 151 % T/C	1.9 mg/kg	100 % T/C	3.0 mg/kg	100 % T/C	57 µg/mL	–
Bis[cis-1,2-bis(diphenylphosphino)ethylene]dichloro iron(III) tetrachloroferrate(III) [TNO 405]	100 mg/kg	160 % T/C	–	–	–	–	–	–	–	–
Bis[cis-1,2-bis(diphenylphosphino)ethylene]palladium(II) dichloride [TNO 357]	–	–	–	–	–	–	–	–	27.7 µg/mL	13.1 µg/mL
